Assay [1] has as its system BH4 levels in SK-N-BE (2) cells. The experiment in a line: SKN-N-BE (2) cellular assay, BH4 levels by LC-MS. Format: cell-based.
Assay [2] deals with SNAP-hSPR (sepiapterin reductase, SPR) (Homo sapiens, UniProt P35270). The experiment in a line: biochemical. Format: binding. The conditions noted are these: terbium labelled SNAP-hSPR / SSZ labelled SNAP-EGFP; read-out: hTR-FRET IC50.
The mark [3] stands for this setting: Homo sapiens, SKNBE2, read-out: SK-N-BE(2) IC50, SK-N-BE (2) cells, BH4 levels by LC-MS.

Here are results for 42 compounds from patent US9963462B2 (priority 2015, dated 2018).

Structures are written as SMILES. Like-named read-outs stand apart in the source and are kept apart here.

Sequence of SNAP-hSPR (sepiapterin reductase, SPR) (P35270 whole entry): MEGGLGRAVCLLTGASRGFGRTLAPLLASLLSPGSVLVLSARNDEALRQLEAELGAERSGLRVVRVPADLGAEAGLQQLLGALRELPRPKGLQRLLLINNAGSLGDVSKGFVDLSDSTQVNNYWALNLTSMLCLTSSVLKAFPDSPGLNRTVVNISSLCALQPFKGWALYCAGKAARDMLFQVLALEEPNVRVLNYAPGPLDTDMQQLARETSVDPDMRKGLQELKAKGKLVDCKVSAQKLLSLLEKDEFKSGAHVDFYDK

Consider `Cc1c(C(=O)N2CCCCC2)cnn1-c1nc2c(c(=O)[nH]1)CCC2` [Q-0633], for which the IC50 came to 400 nM in assay [1] (setting [3]) and 5 nM in assay [2].
For `Cc1c(C(=O)N2CCCCC2)cnn1-c1nn2cccc2c(=O)[nH]1` [Q-0634] the same measures were 700 nM and 3 nM.
For `Cc1c(C(=O)N2CCC3(CC2)CC3)cnn1-c1nn2cccc2c(=O)[nH]1` [Q-0681] the same measures were 200 nM and 1 nM.
On to `Cc1c(C(=O)N2CCC3(CC2)CC(F)(F)C3)cnn1-c1nc2c(c(=O)[nH]1)CCC2` [Q-0691], for which the IC50 in assay [1] (setting [3]) came to 91 nM; in assay [2], 2 nM.
For `Cc1c(C(=O)N2CCC3(CC2)CC3c2nnc(-c3ccccc3)o2)cnn1-c1nn2cccc2c(=O)[nH]1` (stereo not drawn) [Q-0696], the IC50 was 400 nM in assay [1] (setting [3]) and 4 nM in assay [2].
On to `Cc1c(C(=O)N2CCC3(CC2)CC3c2nnc(-c3ccccc3)o2)cnn1-c1nc2c(c(=O)[nH]1)CCC2` (stereo not drawn) [Q-0697], for which the IC50 is 200 nM in assay [1] (setting [3]) and 4 nM in assay [2].
Take `Cc1c(C(=O)N2CCC(C3CC3)CC2)cnn1-c1nc2ccsc2c(=O)[nH]1` [Q-0698]: the IC50 in assay [1] (setting [3]) is 71 nM; in assay [2] it was 1 nM.
As to `Cc1c(C(=O)N2CCC(C3CC3)CC2)cnn1-c1nc2sccc2c(=O)[nH]1` [Q-0700], the IC50 in assay [1] (setting [3]) turned out to be 100 nM; in assay [2], 2 nM.
As for `Cc1c(C(=O)N2CCC(C(O)(C(F)(F)F)C(F)(F)F)CC2)cnn1-c1nc2c(c(=O)[nH]1)CCC2` [Q-0701], the IC50 is 82 nM in assay [1] (read-out: SK-N-BE(2) IC50, SK-N-BE (2) cells, BH4 levels by LC-MS) and 2 nM in assay [2].
Regarding `O=C(c1cnn(-c2nc3c(c(=O)[nH]2)CCC3)c1)N1CCC(c2c[nH]c3ccccc23)CC1` [Q-0702], the IC50 in assay [1] (setting [3]) turned out to be 32 nM; in assay [2], 2 nM.
Turning to `Cc1c(C(=O)N2CCC(CC(F)(F)F)CC2)cnn1-c1nc2ccsc2c(=O)[nH]1` [Q-0704], the IC50 in assay [1] (setting [3]) stood at 200 nM; in assay [2], 2 nM.
In the case of `O=C(c1cnn(-c2nc3c(c(=O)[nH]2)CCC3)c1)N1CCC2(CC1)CC2` [Q-0705], the IC50 in assay [1] (setting [3]) worked out at 43 nM; in assay [2], 2 nM.
With `O=C(c1cnn(-c2nc3c(c(=O)[nH]2)CCC3)c1)N1CCC(C2CC2)CC1` [Q-0706], the IC50 in assay [1] (setting [3]) turned out to be 30 nM; in assay [2], 2 nM.
For `O=C(c1cnn(-c2nc3c(c(=O)[nH]2)CCC3)c1)N1CCC(c2nc3cc(F)ccc3s2)CC1` [Q-0707], the IC50 in assay [1] (setting [3]) came to 300 nM; in assay [2] it was 5 nM.
In the case of `O=C(c1cnn(-c2nn3cccc3c(=O)[nH]2)c1)N1CCC2(CC1)CC2` [Q-0708], the values for the IC50 in assay [1] (setting [3]) and in assay [2] were 97 nM and 1 nM, respectively.
As to `O=C(c1cnn(-c2nn3cccc3c(=O)[nH]2)c1)N1CCC(C2CC2)CC1` [Q-0709], the IC50 in assay [1] (setting [3]) came to 28 nM; in assay [2], 1 nM.
On to `CC(C)(C#N)C1CCN(C(=O)c2cnn(-c3nc4c(c(=O)[nH]3)CCC4)c2)CC1` [Q-0710], for which the figures for the IC50 in assay [1] (setting [3]) and in assay [2] were 200 nM and 2 nM, respectively.
Taken in the same sequence, the figures for `O=C(c1cnn(-c2nc3ccsc3c(=O)[nH]2)c1)N1CCC(C2CC2)CC1` [Q-0711] were 86 nM and 2 nM.
For the compound `O=C(c1cnn(-c2nc3ccsc3c(=O)[nH]2)c1)N1CCC(CC(F)(F)F)CC1` [Q-0712], the IC50 in assay [1] (setting [3]) came out at 300 nM; in assay [2] it was 2 nM.
In the case of `O=C(c1cnn(-c2nn3cccc3c(=O)[nH]2)c1)N1CCC(CC(F)(F)F)CC1` [Q-0713], the figures for the IC50 in assay [1] (setting [3]) and in assay [2] were 200 nM and 1 nM, respectively.
For the compound `Cc1c(C(=O)N2CCNCC2)cnn1-c1nc2c(c(=O)[nH]1)CCC2` [Q-0714], the figures for the IC50 in assay [1] (setting [3]) and in assay [2] were 8100 nM and 30 nM, respectively.
Taken in the same sequence, the figures for `Cc1c(C(=O)N2CCN(c3ccc(F)cc3F)CC2)cnn1-c1nn2cccc2c(=O)[nH]1` [Q-0715] were 97 nM and 2 nM.
Consider `O=C(c1cnn(-c2nn3cccc3c(=O)[nH]2)c1)N1CCC(S(=O)(=O)c2ccc(F)c(F)c2)CC1` [Q-0716], for which the IC50 in assay [1] (setting [3]) is 400 nM; in assay [2] it was 2 nM.
Taken in the same sequence, the figures for `O=C(c1cnn(-c2nc3c(c(=O)[nH]2)CCC3)c1)N1CCC(c2nc3ccc(F)cc3s2)CC1` [Q-0718] were 200 nM and 4 nM.
As for `O=C(c1cnn(-c2nn3cccc3c(=O)[nH]2)c1)N1CCC(C(O)(C(F)(F)F)C(F)(F)F)CC1` [Q-0719], the IC50 in assay [1] (setting [3]) was found to be 200 nM; in assay [2], 2 nM.
On to `CC(C)(C#N)C1CCN(C(=O)c2cnn(-c3nn4cccc4c(=O)[nH]3)c2)CC1` [Q-0720], for which the IC50 in assay [1] (setting [3]) worked out at 300 nM; in assay [2], 1 nM.
For the compound `Cc1c(C(=O)N2CCN(C)CC2)cnn1-c1nc2c(c(=O)[nH]1)CCC2` [Q-0722], the IC50 worked out at 3300 nM in assay [1] (setting [3]) and 20 nM in assay [2].
Turning to `Cc1c(C(=O)N2CCN(C(=O)OC(C)(C)C)CC2)cnn1-c1nc2c(c(=O)[nH]1)CCC2` [Q-0723], the half-maximal inhibitory concentration (IC50) in assay [1] (setting [3]) stood at 200 nM; in assay [2], 3 nM.
Turning to `Cc1c(C(=O)N2CCC(CC(F)(F)F)CC2)cnn1-c1nc2sccc2c(=O)[nH]1` [Q-0724], the IC50 in assay [1] (setting [3]) stood at 200 nM; in assay [2] it was 2 nM.
Consider `CCC1(C#N)CCN(C(=O)c2cnn(-c3nc4c(c(=O)[nH]3)CCC4)c2)CC1` [Q-0725], for which the IC50 worked out at 100 nM in assay [1] (setting [3]) and 1 nM in assay [2].
In the case of `N#CC1(c2ccccc2)CCN(C(=O)c2cnn(-c3nc4c(c(=O)[nH]3)CCC4)c2)CC1` [Q-0726], the IC50 in assay [1] (setting [3]) was 74 nM; in assay [2] it was 1 nM.
For `Cc1c(C(=O)N2CCC(C3CC3)CC2)cnn1-c1nn2cccc2c(=O)[nH]1` [Q-0727] the same measures were 81 nM and 1 nM.
Consider `CN(C(=O)OC(C)(C)C)[C@@H]1CCN(C(=O)c2cnn(-c3nn4cccc4c(=O)[nH]3)c2)C1` [Q-0730], for which the IC50 in assay [1] (setting [3]) turned out to be 200 nM; in assay [2], 1 nM.
Consider `Cc1c(C(=O)N2CCN(C)c3ccccc32)cnn1-c1nc2c(c(=O)[nH]1)CCC2` [Q-0731], for which the values for the IC50 in assay [1] (setting [3]) and in assay [2] were 53 nM and 2 nM, respectively.
For `O=C(c1ccn(-c2nc3c(c(=O)[nH]2)CCC3)c1)N1CCC(C(F)(F)F)CC1` [Q-0732] the same measures were 100 nM and 1 nM.
In the case of `O=C(c1cnn(-c2nn3cccc3c(=O)[nH]2)c1)N1CCN(c2ccc(F)cc2F)CC1` [Q-0734], the IC50 in assay [1] (setting [3]) amounted to 300 nM; in assay [2], 4 nM.
As to `O=C(c1cnn(-c2nc3c(c(=O)[nH]2)CCC3)c1)N1CCN(c2ccc(F)cc2F)CC1` [Q-0735], the IC50 in assay [1] (setting [3]) was 95 nM; in assay [2], 3 nM.
For `Cc1c(C(=O)N2CC[C@@H](N(C)C(=O)OC(C)(C)C)C2)cnn1-c1nn2cccc2c(=O)[nH]1` [Q-0736], the values for the IC50 in assay [1] (setting [3]) and in assay [2] were 200 nM and 2 nM, respectively.
Taken in the same sequence, the figures for `O=C(c1ccn(-c2nn3cccc3c(=O)[nH]2)c1)N1CCC(C(F)(F)F)CC1` [Q-0738] were 100 nM and 1 nM.
In the case of `Cc1c(C(=O)N2C3CCC2CN(C(=O)OC(C)(C)C)C3)cnn1-c1nn2cccc2c(=O)[nH]1` [Q-0739], the IC50 was found to be 300 nM in assay [1] (setting [3]) and 2 nM in assay [2].
Regarding `O=C(c1cnn(-c2nn3cc(F)cc3c(=O)[nH]2)c1)N1CCC(CC(F)(F)F)CC1` [Q-0741], the IC50 in assay [1] (setting [3]) amounted to 400 nM; in assay [2], 4 nM.
Taken in the same sequence, the figures for `O=C(c1cnn(-c2nc3c(c(=O)[nH]2)CCC3)c1)N1CCN2CCC[C@@H]2C1` [Q-0743] were 400 nM and 4 nM.
